Columns and labels:
A549 cells = experiment: Inhibition of cancer cell growth, MTT assay, A549; format: cell-based; details: Homo sapiens, A549, 72 h exposure
Method: (§1) Inhibition of cell growth by compounds was measured using MTT assay (Mosmann, T., Journal of Immunological Methods, 1983, 65, 55-63). Tumor cell lines were purchased from ATCC (American Type Culture Collection, Manassas, Va.). All cell lines were maintained in RPMI 1640 (Hyclone) supplemented with 10% fetal bovine serum (FBS, Hyclone), glutamine (2 mM, Hyclone), and antibiotics (penicillin 100 U/mL and streptomycin 50 μg/mL) at 37° C. in a humidified atmosphere of 5% CO2 in air. Taxol (as a positive control, Sigma) and compounds were dissolved in DMSO (Sigma), and the final concentration of DMSO in the medium was 1%. Tumor cells were plated in 96-well plates at densities of about 4000 cells/well of a 96-well plate and allowed to adhere/grow for 24 h. They were then treated with various concentrations of drug for 72 h. 3-(4,5-Dimethylthiazol-2-yl)-2,5-diphenyltetrazolium bromide (MTT, Sigma) was used to determine the number of viable cells at the time of compound addition and the number of cells remaining after 72 h compound exposure. The number of cells remaining after 72 h was compared to the number of viable cells at the time of compound addition by measuring the absorbance at 570 nm, allowing for the calculation of growth inhibition.
(§2) All concentrations of compounds were tested in triplicate and controls were averaged over 4 wells. IC50 was calculated by plotting the concentration of compound vs the percentage of inhibition in treated wells using GraphPad Prism 5. […] The scale utilized in Table 6 is as follows: +++ less than 1000 nM; ++ between 1000 nM and 5000 nM; and + greater than 5000 nM. The scale utilized in Table 7 is as follows: +++ less than 2000 nM; ++ between 2000 nM and 5000 nM; and + greater than 5000 nM.

A375 cells = experiment: Inhibition of cancer cell growth, MTT assay, A375; format: cell-based; details: Homo sapiens, A-375, 72 h exposure
Method: as §1, §2

BRAF V600E = BRAF V600E (Homo sapiens (Human), UniProt P15056, V600E); experiment: Z′-LYTE kinase inhibition assay (Invitrogen), BRAF V600E; format: biochemical; details: 1 μM compound, Z′-LYTE method; read-out: % inhibition at 1 μM against BRAF V600E
Method: (§3) Inhibitory activities Inhibitory activities of compounds against BRAF, and BRAF V600E were measured by Invitrogen using Z′-LYTE® Method as briefly described in the following. 4× Test compounds are dissolved in 1% DMSO. […] ATP solutions are diluted to a 4×ATP working concentration in Kinase Buffer (50 mM HEPES pH 7.5, 0.01% BRIJ-35, 10 mM MgCl2, 1 mM EGTA). Reaction started by 30-second shaking of mixture consisting of 2.5 μL 4× test compound, […] and 2.5 μL 4×ATP Solution on Bar-coded Corning, low volume NBS, black 384-well plate (Corning Cat. #3676). Then the mixture was incubated for 60-minute at room temperature for the kinase reaction, followed by addition of 5 μL of a 1:1024 dilution of development reagent A and 30-second plate shake. The mixture was then incubated for another 60-minute at room temperature for development reaction. Fluorescence was read by plate reader. IC50 was calculated by plotting the concentration of compound vs the percentage of inhibition in treated wells using GraphPad Prism 5.
The scale utilized in Table 3 is as follows: +++ less than 100 nM; and ++ greater than 100 nM.

KDR (VEGFR2) = KDR (VEGFR2) (Homo sapiens (Human), UniProt P35968); experiment: Z′-LYTE kinase inhibition assay (Invitrogen), KDR; format: biochemical; details: 1 μM compound, Z′-LYTE method; read-out: % inhibition at 1 μM against KDR
Method: as §3
Inhibitory activities of compounds against KDR (VEGFR2) were also measured by Invitrogen using Z′-LYTE® Method as described above with the following modification. The 2× KDR (VEGFR2)/Tyr 01 mixture is prepared in 50 mM HEPES pH 7.5, 0.01% BRIJ-35, 10 mM MgCl2, 1 mM EGTA. The final 10 μL Kinase Reaction consists of 0.5-11.7 ng KDR (VEGFR2) and 2 μM Tyr 01 in 50 mM HEPES pH 7.5, 0.01% BRIJ-35, 10 mM MgCl2, 1 mM EGTA. After the 1 hour Kinase Reaction incubation, 5 μL of a 1:256 dilution of Development Reagent B is added.
The scale utilized in Table 5 is as follows: +++ less than 100 nM; and ++ greater than 100 nM

Sequence of BRAF V600E (P15056 whole entry V600E): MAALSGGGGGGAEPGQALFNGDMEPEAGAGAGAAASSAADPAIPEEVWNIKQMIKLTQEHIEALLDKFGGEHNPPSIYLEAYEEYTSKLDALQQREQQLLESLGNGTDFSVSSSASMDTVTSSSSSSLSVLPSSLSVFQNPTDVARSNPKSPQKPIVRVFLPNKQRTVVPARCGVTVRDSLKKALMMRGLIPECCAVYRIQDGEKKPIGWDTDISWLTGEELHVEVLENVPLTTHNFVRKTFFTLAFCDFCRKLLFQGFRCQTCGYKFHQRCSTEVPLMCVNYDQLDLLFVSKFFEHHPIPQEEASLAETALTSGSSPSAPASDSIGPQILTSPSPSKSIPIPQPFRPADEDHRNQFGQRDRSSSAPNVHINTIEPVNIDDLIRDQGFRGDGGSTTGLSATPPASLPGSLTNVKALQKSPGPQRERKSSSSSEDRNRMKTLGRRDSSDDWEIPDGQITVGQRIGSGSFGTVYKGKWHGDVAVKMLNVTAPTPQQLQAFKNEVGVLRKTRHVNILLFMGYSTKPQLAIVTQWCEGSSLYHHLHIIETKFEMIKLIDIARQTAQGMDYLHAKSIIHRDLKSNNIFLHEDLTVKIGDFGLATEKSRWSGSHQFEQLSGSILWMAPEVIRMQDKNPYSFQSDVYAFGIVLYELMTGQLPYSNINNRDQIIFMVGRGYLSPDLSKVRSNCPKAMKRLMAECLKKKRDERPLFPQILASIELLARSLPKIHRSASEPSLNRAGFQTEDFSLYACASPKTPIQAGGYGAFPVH
Sequence of KDR (VEGFR2) (P35968 20-1356): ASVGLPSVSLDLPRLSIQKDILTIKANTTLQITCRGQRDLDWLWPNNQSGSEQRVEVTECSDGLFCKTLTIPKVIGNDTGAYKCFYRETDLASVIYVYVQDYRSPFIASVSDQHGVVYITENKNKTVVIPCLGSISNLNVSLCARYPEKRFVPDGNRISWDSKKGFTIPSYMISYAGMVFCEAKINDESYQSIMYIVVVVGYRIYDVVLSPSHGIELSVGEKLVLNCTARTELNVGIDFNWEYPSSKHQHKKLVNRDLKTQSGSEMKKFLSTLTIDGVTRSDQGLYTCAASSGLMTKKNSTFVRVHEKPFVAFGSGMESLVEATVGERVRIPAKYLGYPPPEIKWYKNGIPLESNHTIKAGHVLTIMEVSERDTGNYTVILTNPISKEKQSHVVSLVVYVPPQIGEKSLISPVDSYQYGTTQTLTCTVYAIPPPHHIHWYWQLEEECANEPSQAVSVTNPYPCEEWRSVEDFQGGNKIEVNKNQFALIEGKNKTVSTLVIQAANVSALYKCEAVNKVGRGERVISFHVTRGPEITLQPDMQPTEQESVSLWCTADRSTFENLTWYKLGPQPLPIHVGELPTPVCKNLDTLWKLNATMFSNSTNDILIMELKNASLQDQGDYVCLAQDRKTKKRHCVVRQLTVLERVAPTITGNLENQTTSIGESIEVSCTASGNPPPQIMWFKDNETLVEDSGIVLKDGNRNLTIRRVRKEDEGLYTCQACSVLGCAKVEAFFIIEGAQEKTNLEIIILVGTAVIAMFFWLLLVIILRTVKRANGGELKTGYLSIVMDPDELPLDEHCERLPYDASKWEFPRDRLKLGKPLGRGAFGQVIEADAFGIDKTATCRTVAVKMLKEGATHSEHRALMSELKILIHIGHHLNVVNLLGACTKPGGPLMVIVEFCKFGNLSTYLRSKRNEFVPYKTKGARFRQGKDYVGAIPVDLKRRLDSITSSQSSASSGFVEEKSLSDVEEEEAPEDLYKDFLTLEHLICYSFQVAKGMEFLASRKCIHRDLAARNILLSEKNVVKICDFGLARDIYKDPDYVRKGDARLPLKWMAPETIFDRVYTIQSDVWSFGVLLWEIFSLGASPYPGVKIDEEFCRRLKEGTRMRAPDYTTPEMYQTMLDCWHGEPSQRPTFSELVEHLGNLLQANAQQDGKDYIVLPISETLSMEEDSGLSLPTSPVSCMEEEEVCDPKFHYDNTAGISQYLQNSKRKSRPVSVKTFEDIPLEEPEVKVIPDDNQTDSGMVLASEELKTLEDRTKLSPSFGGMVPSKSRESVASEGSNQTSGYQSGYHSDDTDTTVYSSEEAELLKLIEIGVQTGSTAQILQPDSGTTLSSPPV

Row | IC50 (A549 cells) [µM] | IC50 (A375 cells) [µM] | inhibition at 1 µM (BRAF V600E) [%] | inhibition at 1 µM (KDR (VEGFR2)) [%] | SMILES
1 | > 5 | > 5 | 70 to 89 | < 70 | O=C(Nc1cc(F)cc(C(=O)c2ccc3nccnc3c2)c1)c1ccc(Cl)c(C(F)(F)F)c1 [Compound C127, 4-chloro-N-(3-fluoro-5-(quinoxaline-6-carbonyl)phenyl)-3-(trifluoromethyl)benzamide]
2 | < 2 | 1 to 5 | < 70 | < 70 | O=C(Nc1ccc(Cl)c(C(F)(F)F)c1)Nc1ccc(F)c(C(=O)c2ccc3nccnc3c2)c1F [Compound C012, 1-(4-chloro-3-(trifluoromethyl)phenyl)-3-(2,4-difluoro-3-(quinoxaline-6-carbonyl)phenyl)urea]
3 | > 5 | > 5 | 70 to 89 | < 70 | O=C(Nc1cccc(F)c1)Nc1ccc(F)c(C(=O)c2ccc3nccnc3c2)c1F [Compound C011, 1-(2,4-difluoro-3-(quinoxaline-6-carbonyl)phenyl)-3-(3-fluorophenyl)urea]
4 | > 5 | 1 to 5 | > 89 | 70 to 89 | O=C(Nc1cc(F)c(F)c(C(=O)c2ccc3nccnc3c2)c1)c1ccc(Cl)c(C(F)(F)F)c1 [Compound C129, 4-chloro-N-(3,4-difluoro-5-(quinoxaline-6-carbonyl)phenyl)-3-(trifluoromethyl)benzamide]
5 | > 5 | > 5 | > 89 | < 70 | O=C(Nc1cc(F)cc(C(=O)c2ccc3nccnc3c2)c1)Nc1ccc(F)c(F)c1 [Compound C065, 1-(3,4-difluorophenyl)-3-(3-fluoro-5-(quinoxaline-6-carbonyl)phenyl)urea]
6 | 2 to 5 | 1 to 5 | > 89 | < 70 | O=C(Nc1cccc(C(F)(F)F)c1)Nc1cc(F)c(F)c(C(=O)c2ccc3nccnc3c2)c1 [Compound C042, 1-(3,4-difluoro-5-(quinoxaline-6-carbonyl)phenyl)-3-(3-(trifluoromethyl)phenyl)urea]
7 | < 2 | < 1 | > 89 | < 70 | O=C(Nc1ccc(C(F)(F)F)cc1)Nc1ccc(F)c(C(=O)c2ccc3nccnc3c2)c1 [Compound C075, 1-(4-fluoro-3-(quinoxaline-6-carbonyl)phenyl)-3-(4-(trifluoromethyl)phenyl)urea]
8 | > 5 | 1 to 5 | > 89 | > 89 | O=C(Nc1ccc(F)c(Cl)c1)Nc1ccc(F)c(C(=O)c2ccc3nccnc3c2)c1 [Compound C073, 1-(3-chloro-4-fluorophenyl)-3-(4-fluoro-3-(quinoxaline-6-carbonyl)phenyl)urea]
9 | 2 to 5 | 1 to 5 | > 89 | 70 to 89 | O=C(Nc1cc(F)cc(Cl)c1)Nc1ccc(F)c(C(=O)c2ccc3nccnc3c2)c1 [Compound C078, 1-(3-chloro-5-fluorophenyl)-3-(4-fluoro-3-(quinoxaline-6-carbonyl)phenyl)urea]

More lines, now with the values behind:

Row | SMILES | IC50 (A549 cells) [µM] | IC50 (A375 cells) [µM] | inhibition at 1 µM (BRAF V600E) [%] | inhibition at 1 µM (KDR (VEGFR2)) [%]
10 | O=C(Nc1cc(F)cc(C(=O)c2ccc3nccnc3c2)c1)Nc1cccc(C(F)(F)F)c1 [Compound C027, 1-(3-fluoro-5-(quinoxaline-6-carbonyl)phenyl)-3-(3-(trifluoromethyl)phenyl)urea] | < 2 | > 5 | > 89 | 70 to 89
11 | O=C(Nc1cccc(Cl)c1)Nc1ccc(F)c(C(=O)c2ccc3nccnc3c2)c1 [Compound C072, 1-(3-chlorophenyl)-3-(4-fluoro-3-(quinoxaline-6-carbonyl)phenyl)urea] | > 5 | 1 to 5 | > 89 | < 70
12 | O=C(Nc1cccc(C(=O)c2ccc3ncc(N4CCCC4)nc3c2)c1)c1ccc(Cl)c(C(F)(F)F)c1 [Compound C123, 4-chloro-N-(3-(3-(pyrrolidin-1-yl)quinoxaline-6-carbonyl)phenyl)-3-(trifluoromethyl)benzamide] | > 5 | > 5 | 70 to 89 | 70 to 89
13 | NCCNc1cnc2ccc(C(=O)c3cc(NC(=O)Nc4cc(F)cc(F)c4)ccc3F)cc2n1 [Compound C092, 1-(3-(3-((2-aminoethyl)amino)quinoxaline-6-carbonyl)-4-fluorophenyl)-3-(3,5-difluorophenyl)urea] | > 5 | 1 to 5 | > 89 | 70 to 89
14 | O=C(Nc1cccc(F)c1)Nc1cc(F)c(F)c(C(=O)c2ccc3ncc(N4CCOCC4)nc3c2)c1F [Compound C033, 1-(3-fluorophenyl)-3-(2,4,5-trifluoro-3-(3-morpholinoquinoxaline-6-carbonyl)phenyl)urea] | 2 to 5 | 1 to 5 | 70 to 89 | < 70
15 | O=C(Nc1cc(F)cc(C(=O)c2ccc3ncc(N4CCOCC4)nc3c2)c1)Nc1ccc(F)c(Cl)c1 [Compound C044, 1-(3-chloro-4-fluorophenyl)-3-(3-fluoro-5-(3-morpholinoquinoxaline-6-carbonyl)phenyl)urea] | 2 to 5 | 1 to 5 | > 89 | 70 to 89
16 | O=C(Nc1cccc(C(=O)c2ccc3ncc(N4CCOCC4)nc3c2)c1)c1cccc(F)c1 [Compound C118, 3-fluoro-N-(3-(3-morpholinoquinoxaline-6-carbonyl)phenyl)benzamide] | 2 to 5 | 1 to 5 | > 89 | 70 to 89
17 | O=C(Nc1cccc(F)c1)Nc1cc(F)cc(C(=O)c2ccc3ncc(N4CCOCC4)nc3c2)c1 [Compound C037, 1-(3-fluoro-5-(3-morpholinoquinoxaline-6-carbonyl)phenyl)-3-(3-fluorophenyl)urea] | > 5 | 1 to 5 | > 89 | < 70
18 | O=C(Nc1cc(F)cc(C(=O)c2ccc3ncc(N4CCOCC4)nc3c2)c1)Nc1ccc(Cl)c(Cl)c1 [Compound C050, 1-(3,4-dichlorophenyl)-3-(3-fluoro-5-(3-morpholinoquinoxaline-6-carbonyl)phenyl)urea] | < 2 | < 1 | > 89 | 70 to 89
19 | O=C(Nc1cccc(Cl)c1)Nc1cc(F)cc(C(=O)c2ccc3ncc(N4CCOCC4)nc3c2)c1 [Compound C047, 1-(3-chlorophenyl)-3-(3-fluoro-5-(3-morpholinoquinoxaline-6-carbonyl)phenyl)urea] | 2 to 5 | 1 to 5 | > 89 | < 70
20 | O=C(Nc1cc(F)cc(C(=O)c2ccc3nccnc3c2)c1)c1cccc(F)c1 [Compound C125, 3-fluoro-N-(3-fluoro-5-(quinoxaline-6-carbonyl)phenyl)benzamide] | > 5 | > 5 | < 70 | < 70
